Among the test systems are KM-20L2; LXFL 529; M19-MEL; DMS-273; XF498; DMS-114; HOP-18; BT-549.
Assay in all cases: inhibition of tumour cell growth, NCI panel, 48 h

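Test compounds were applied to cells in 96-well plates for 48 hours at 5 doses. GI50 marks 50% less growth.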 The source made the active and inactive calls. Rule as the data show it: active = GI50 up to about 1.1 µM and inactive = higher. Square brackets hold non-standard residues; d marks the D form. Peptide text beside a SMILES is read from it. * marks the point of attachment. X26 = COC1=CC(=O)N(C(=O)[C@@H](O*)C(C)C)[C@H]1Cc1ccccc1; NMeV = CN[C@H](C(=O)O)C(C)C; Hexanoyl = CCCCCC(=O)*

On to `N=C1CSC2=NC3=C(CCC/C3=C\c3ccccc3)C(c3ccccc3)N12` (stereo unspecified), for which the GI50 with KM-20L2 was 4.37 µM (inactive); in the assay with LXFL 529, 4.89 µM (inactive); with M19-MEL, 5.19 µM (inactive); with DMS-273, 3.8 µM (inactive); with XF498, 20.7 µM (inactive); with DMS-114 it was 2.8 µM (inactive).

Regarding `CC1=CC(=O)N2C(OC[C@@H]2c2ccccc2)O1` (stereo partly specified), the GI50 was > 100 µM (inactive) in the assay with KM-20L2; > 100 µM (inactive) with LXFL 529; > 100 µM (inactive) in the assay with M19-MEL; > 100 µM (inactive) in the assay with XF498; 20.7 µM (inactive) in the assay with HOP-18.

`CC(C)N1CN(C(C(=O)N[C@@H]2C(=O)N3C2SC(C)(C)C3C(=O)O)c2ccc(O)cc2)CSC1=S` (stereo partly specified): the GI50 in the assay on KM-20L2, with LXFL 529, in the assay on M19-MEL, in the assay on DMS-273, in the assay on XF498 and in the assay on DMS-114 was > 100 µM (inactive) in each case. Besides, the GI50 with HOP-18 is > 100 µM (inactive).

Regarding `CC1=NC2(C(=O)O)C3(C(=O)O)N=C(C)OC3(C(F)(F)F)C2(C(F)(F)F)O1` (stereo unspecified), the GI50 in the assay with KM-20L2, in the assay on M19-MEL, with DMS-273, with XF498, in the assay on DMS-114 and in the assay on HOP-18 was > 100 µM (inactive) throughout.

With `CC(C)OP(=O)(OC(C)C)/C(=N/Nc1ccc([N+](=O)[O-])cc1)Nc1ccccc1`, the GI50 in the assay on KM-20L2 was 24.2 µM (inactive); in the assay with LXFL 529, 19.5 µM (inactive); in the assay with M19-MEL it was 47.2 µM (inactive); with DMS-273, 25.3 µM (inactive); in the assay on XF498 it was 22.2 µM (inactive); with DMS-114, 20.4 µM (inactive).

With `CCOC(=O)c1c(-c2[nH]c(C(=O)OCc3ccccc3)c(C)c2C(=O)OCC)[nH]c(C(=O)OCc2ccccc2)c1C`, the GI50 with KM-20L2, in the assay with LXFL 529, in the assay on M19-MEL, with DMS-273, in the assay on DMS-114 and in the assay with HOP-18 was > 100 µM (inactive) throughout.

In the case of `O=C1C=CC(=O)c2c1ccc1c3ccccc3n(CCCCCCCCn3c4ccccc4c4ccc5c(c43)C(=O)C=CC5=O)c21`, in the assay with BT-549, the GI50 is > 100 µM (inactive).

As to `O=S1(=O)OCCOS(=O)(=O)C1(Br)Cc1ccccc1`, the GI50 in the assay with KM-20L2, with LXFL 529, in the assay on M19-MEL, in the assay on DMS-273, in the assay on XF498 and with DMS-114 was > 100 µM (inactive) in each case.

As to `COc1cc(C2C(Cl)C(=O)N2NC(=O)c2ccc(NC(C)=O)cc2)ccc1O` (stereo unspecified), the GI50 in the assay with KM-20L2, with LXFL 529, in the assay with M19-MEL, in the assay on DMS-273, in the assay on XF498 and in the assay on DMS-114 was > 100 µM (inactive) each time.

Consider `Cc1cc(C)cc(Nc2cc(O)nc(O)n2)c1`, for which the GI50 in the assay on BT-549 was > 100 µM (inactive).

In the case of `C=CCN1C[C@H](C)N([C@@H](c2ccc(C(=O)N3CCCCC3)cc2)c2cccc(OC)c2)C[C@H]1C`, in the assay on BT-549, the GI50 is 32.9 µM (inactive).

Take `CC(N)/C(N)=N/O` (stereo unspecified): the GI50 in the assay on BT-549 is > 100 µM (inactive).

As for `COc1ccc(Nc2nnc(CCCCCCCCc3nnc(Nc4ccc(OC)cc4)o3)o2)cc1`, the GI50 in the assay on BT-549 was 80.9 µM (inactive).

In the case of `Cc1cnc2sn(-c3ccc(Oc4ccccc4)cc3)c(=O)c2c1`, the GI50 in the assay on BT-549 is 23.8 µM (inactive).

On to `CC1=N[C@@](C)(C2CC3C=CC2C3=O)COC1=O` (stereo partly specified), for which the GI50 in the assay on BT-549 was > 100 µM (inactive).

`OCC1OC(n2cnc3c(Cl)nc(Nc4ccc(Cl)c(Cl)c4)nc32)CC1O` (stereo unspecified): in the assay on BT-549, the GI50 is 9.98 µM (inactive).

As for `COc1ccc(-c2csc(Cc3nc4ccccc4c(=O)n3-c3ccc(Cl)cc3)n2)cc1`, the GI50 in the assay with BT-549 was 45 µM (inactive).

`C=C1C(=O)OC2C1C(OC(=O)/C(C)=C/C)CC1(C)C(=O)CCC(=C)C21` (stereo unspecified): the GI50 in the assay with BT-549 is 6.27 µM (inactive).

Consider `CC(=O)OCC1OC(OC2CC3C(C)(C)C(O)CC[C@]3(C)C3CCC45CC4(CCC5[C@@H](C)CC(O)C(O)C(C)(C)O)[C@]23C)C(O)C(O)C1O` (stereo partly specified), for which, in the assay on BT-549, the GI50 was > 10 µM (inactive).

Turning to `Cc1ccc(S(=O)(=O)NC(=O)NC(Cc2c[nH]c3ccccc23)C(=O)O)cc1` (stereo unspecified), the GI50 in the assay with BT-549 was > 100 µM (inactive).

In the case of `CCCCCC(=O)N[C@H](C(=O)N[C@H](C(=O)N(C)[C@H](C(=O)N1CCC[C@H]1C(=O)N1CCC[C@H]1C(=O)O[C@H](C(=O)N1C(=O)C=C(OC)[C@@H]1Cc1ccccc1)C(C)C)C(C)C)C(C)C)C(C)C` (Hexanoyl-VV[NMeV]PP-X26), the GI50 in the assay on BT-549 is 59.8 µM (inactive).

`O=C(/C=C/c1cccc(Br)c1)N1CCN(CCOC(c2ccccc2)c2ccccc2)CC1`: in the assay on BT-549, the GI50 is 26.5 µM (inactive).

On to `CCOC(=O)NC(C(=O)OCC)(N1CCN(c2cc3c(cc2F)c(=O)c(C(=O)O)cn3CC)CC1)C(F)(F)F` (stereo unspecified), for which the GI50 in the assay on BT-549 was > 100 µM (inactive).

`CC1=NNC(=O)C1C1CC(c2c[nH]c3ccccc23)=NN(c2ccccc2)C1=O` (stereo unspecified): the GI50 with BT-549 is 86.1 µM (inactive).

Take `CC(=O)OCC1OC(NC(=S)Nn2c(-c3ccccc3)nc3ccccc3c2=O)C(OC(C)=O)C(OC(C)=O)C1OC(C)=O` (stereo unspecified): in the assay with BT-549, the GI50 is > 100 µM (inactive).

Regarding `CC(C)CCC[C@@H](C)[C@H]1CCC2C3CC=C4C[C@@H](Oc5c6ccccc6nc6ccccc56)CCC4C3CCC21` (stereo partly specified), in the assay on BT-549, the GI50 is > 50 µM (inactive).

The record behind these values is ChEMBL document CHEMBL1201862, “PubChem BioAssay data set” (2004).
